{"source": "patent US12594284B2", "about": "“Combination of micronutrients to stimulate the endogenous production of hydrogen sulfide (H2S)” (priority 2020, dated 2026)", "key": {"[1]": {"system": "endogenous production of H2S (CBS, CSE, 3MST)", "experiment": "Inventor's observations on administration of the micronutrients to humans (H2S production markers, redox, homocysteine, insulin resistance)", "assay_type": "in vivo, human", "conditions": "for triggering of the H2S system by form of vitamin B6: subjects possibly with genetic weakness of vitamin B6 activation and recycling"}, "[2]": {"system": "endogenous production of H2S (CBS, CSE, 3MST)", "conditions": "subjects with chronically low-vitamin B6 status; cited from earlier work"}, "[3]": {"system": "reductive stress", "experiment": "Reductive stress induced by vitamin C in healthy male subjects (plasma NADH, erythrocyte GSH)", "assay_type": "in vivo, human", "conditions": "vitamin C 2 gr per day alone, 1 week", "from_the_text": "Vitamin C caused a subclinical reductive stress as reported by a 40% increase of plasma NADH and 31% and 63% increase of erythrocyte GSH and GSH to GSSG ratio, respectively. […] Thus, the aforementioned composition prevented the reductive stress induced by a powerful reducing agent."}, "[4]": {"system": "blood pressure of pre-hypertensive patients", "conditions": "cited from earlier work"}, "[5]": {"conditions": "vitamin B6 added to taurine and L-cystine supplementation"}, "[6]": {"conditions": "taurine added to L-cystine supplementation"}, "[7]": {"conditions": "taurine 1.6 gr per day, 12 weeks"}}, "data": [{"smiles": "Cc1ncc(CO)c(CO)c1O", "note": "[pyridoxine, reference compound]", "values": [{"measurement": "triggering of the H2S system by form of vitamin B6", "setting": "[1]", "result": "failed to trigger the system in some subjects"}, {"measurement": "plasma concentrations of lanthionine and homolanthionine", "setting": "[2]", "result": "did not respond"}]}, {"smiles": "Cc1ncc(CO)c(CO)c1O.Cl", "note": "[vitamin B6]", "values": [{"measurement": "CSE activity", "setting": "[1]; supra-physiological amounts of vitamin B6", "result": "effective in activating CSE activity"}, {"measurement": "daily amounts that do not produce any further added effect", "setting": "[1]; [5]", "result": "> 100", "unit": "mg"}, {"measurement": "daily dose at which increased H2S production compared to L-cystine and taurine is already measured", "setting": "[1]; [5]", "result": 2, "unit": "mg per day"}]}, {"smiles": "Cc1ncc(COP(=O)(O)O)c(C=O)c1O", "note": "[pyridoxal-5-phosphate]", "values": [{"measurement": "triggering of the H2S system by form of vitamin B6", "setting": "[1]", "result": "responded normally"}]}, {"smiles": "O=C1O[C@H]([C@@H](O)CO)C(O)=C1O", "note": "[Vitamin C, vitamin C]", "values": [{"measurement": "increase of GSH to GSSG ratio", "setting": "[3]", "result": 63, "unit": "%"}, {"measurement": "increase of erythrocyte GSH", "setting": "[3]", "result": 31, "unit": "%"}, {"measurement": "increase of plasma NADH", "setting": "[3]", "result": 40, "unit": "%"}]}, {"smiles": "NCCS(=O)(=O)O", "note": "[taurine]", "values": [{"measurement": "daily amounts that do not produce any further added effect", "setting": "[1]; [6]", "result": "> 2000", "unit": "mg"}, {"measurement": "daily dose at which increased H2S production compared to L-cystine alone is already measured", "setting": "[1]; [6]", "result": 100, "unit": "mg per day"}, {"measurement": "expression of CBS and CSE", "setting": "[4]; human, in vivo", "result": "induced the expression of CBS and CSE"}, {"measurement": "circulating H2S", "setting": "[4]; [7]", "result": "increase of circulating H2S"}, {"measurement": "reduction of diastolic blood pressure", "setting": "[4]; [7]", "result": 3.4, "unit": "mm Hg"}, {"measurement": "reduction of systolic blood pressure", "setting": "[4]; [7]", "result": 4.6, "unit": "mm Hg"}]}, {"smiles": "N[C@@H](CS)C(=O)O", "note": "[cysteine]", "values": [{"measurement": "H2S levels", "setting": "[1]; isolated cysteine administration", "result": "fail to increase H2S levels"}]}]}
